Where two headings read alike, the source gives them in different places. Where a SMILES comes first, the peptide text is derived from it.
Tests used:
TPO-R = biological target: T1, TPO-R (Homo sapiens, UniProt P40238); assay: Competition binding assay (equilibrium binding ELISA, MBP-TPO156 tracer) on immobilized TPO-R
T1 construct: made in house
T1 sequence (P40238 26-491 limits assumed): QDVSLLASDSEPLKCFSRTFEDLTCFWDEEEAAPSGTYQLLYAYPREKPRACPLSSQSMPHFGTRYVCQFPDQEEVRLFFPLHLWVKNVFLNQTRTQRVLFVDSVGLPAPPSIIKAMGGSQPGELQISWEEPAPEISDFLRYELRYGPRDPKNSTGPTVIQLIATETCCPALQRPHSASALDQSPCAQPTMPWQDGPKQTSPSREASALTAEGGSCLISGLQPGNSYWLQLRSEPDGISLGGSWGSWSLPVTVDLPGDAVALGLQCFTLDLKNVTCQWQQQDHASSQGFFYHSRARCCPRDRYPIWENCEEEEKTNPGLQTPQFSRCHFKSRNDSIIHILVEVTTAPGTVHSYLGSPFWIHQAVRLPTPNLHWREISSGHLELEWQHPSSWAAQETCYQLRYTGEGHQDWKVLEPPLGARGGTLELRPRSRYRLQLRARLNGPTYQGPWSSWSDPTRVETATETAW
Protocol: A variety of methods can be used to evaluate IC50 values. For example, an equilibrium binding ELISA assay, using either MBP-TPO or lacI-peptide tracer, was used to determine whether the peptides inhibit the binding of TPO to the extracellular domain of the TPO receptor. Typically, the IC50 value were determined using the free peptide. The IC50 value can be determined using the free peptide, which optionally can be C-terminally amidated, or can be prepared as an ester or other carboxy amide.
Binding affinities of chemically synthesized peptides for TPO-R were measured in a competition binding assay. The wells of a microtiter plate were coated with 1 mg streptavidin, blocked with PBS/1% BSA, followed by 50 ng of biotinylated anti-receptor immobilizing antibody (Ab179). The wells were then treated with a 1:10 dilution of soluble TPO-R harvest. Various concentrations of peptide or peptide mimetic were mixed with a constant amount of a truncated form of TPO consisting of residues 1-156 fused to the C-terminus of maltose binding protein (MBP-TPO156). The peptide MBP-TPO156 mixtures were added to the TPO-R coated wells, incubated for 2 hours at 4° C. and then washed with PBS. The amount of MBP-TPO156 that was bound at equilibrium was measured by adding a rabbit anti-sera directed against MBP, followed by alkaline phosphatase conjugated goat anti-rabbit IgG. The amount of alkaline phosphatase in each well was then determined using standard methods.
The assay is conducted over a range of peptide concentrations and the results are graphed such that the y axis represents the amount of bound MBP-TPO156 and the x axis represents the concentration of peptide or peptide mimetic.

[1] = biological target: T2, human TPO-R (transfected Ba/F3 cells) (Homo sapiens, UniProt P40238); assay: Thrombopoietin dependent cell proliferation assay (MTT), TPO-R transfected Ba/F3 cells; assay type: cell-based
T2 construct: Murine IL-3 dependent Ba/F3 cells were transfected with full length human TPO-R; expressed in transfected cells; host or cells: murine Ba/F3 cells
T2 sequence (P40238 26-635): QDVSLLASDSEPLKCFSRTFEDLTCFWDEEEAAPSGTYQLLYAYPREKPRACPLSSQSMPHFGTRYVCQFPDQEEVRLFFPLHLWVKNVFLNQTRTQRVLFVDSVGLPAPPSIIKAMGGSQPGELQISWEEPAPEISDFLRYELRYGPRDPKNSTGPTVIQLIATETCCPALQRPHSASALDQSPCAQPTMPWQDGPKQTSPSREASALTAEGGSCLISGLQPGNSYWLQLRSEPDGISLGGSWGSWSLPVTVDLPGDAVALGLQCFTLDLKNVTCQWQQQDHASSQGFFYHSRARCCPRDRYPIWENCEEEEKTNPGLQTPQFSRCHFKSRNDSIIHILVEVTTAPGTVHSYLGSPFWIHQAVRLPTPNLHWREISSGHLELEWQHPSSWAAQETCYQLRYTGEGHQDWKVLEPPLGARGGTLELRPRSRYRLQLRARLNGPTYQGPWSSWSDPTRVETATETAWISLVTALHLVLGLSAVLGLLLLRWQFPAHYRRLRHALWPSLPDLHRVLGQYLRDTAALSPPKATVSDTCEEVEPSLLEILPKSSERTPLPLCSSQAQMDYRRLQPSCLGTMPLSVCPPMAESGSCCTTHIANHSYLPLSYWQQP
Protocol: Bioactivity of the peptides can be measured using a thrombopoietin dependent cell proliferation assay. Murine IL-3 dependent Ba/F3 cells were transfected with full length human TPO-R. In the absence of IL-3 (WEHI-3 conditioned media), these cells are dependent on TPO for proliferation.
The cells were grown in complete RPMI-10 media, containing 10% WEHI-3 conditioned media, then washed twice in PBS, resuspended in media which lacked WEHI-3 conditioned media, and added to wells containing dilutions of peptide or TPO at 2×10^4 cells/well. The cells were incubated for 48 hours at 37° C. in a humidified 5% CO2 atmosphere and metabolic activity was assayed by the reduction of MTT to formazan, with absorbance at 570 nm measured on an ELISA plate reader.

[2] = Table 5, substitutions in cyclized compound, read-out: EC50 (nM) Cell Prolif.

SMILES	IC50 (TPO-R; Table 5, read-out: IC50) [nM]	EC50 [1, 2] [nM]	further results
CC[C@H](C)[C@@H]1NC(=O)[C@H](Cc2c[nH]c3ccccc23)NC(=O)[C@H](CCC(=O)O)NC(=O)[C@H](CCCNC(=N)N)NC(=O)[C@H](CC(C)C)NC(=O)[C@H]([C@@H](C)O)NC(=O)[C@@H]2CCCN2C(=O)CNC(=O)[C@H](CC(=O)O)NC(=O)[C@H](C)NC(=O)[C@@H](N)CSSC[C@@H](C(N)=O)NC(=O)CCCCNC1=O [S,F-Ava] (HELM PEPTIDE1{C.A.D.G.P.T.L.R.E.W.I.[O=C(CCCCN[*:1])[*:2]].C.[am]}$PEPTIDE1,PEPTIDE1,1:R3-13:R3$$$V2.0; N-terminus and C-terminus assumed)	≤ 500	< 200000	–
CC[C@H](C)[C@@H]1NC(=O)[C@H](Cc2c[nH]c3ccccc23)NC(=O)[C@H](CCC(=O)O)NC(=O)[C@H](CCCNC(=N)N)NC(=O)[C@H](CC(C)C)NC(=O)[C@H]([C@@H](C)O)NC(=O)[C@@H]2CCCN2C(=O)CNC(=O)[C@H](CC(=O)O)NC(=O)[C@H](C)NC(=O)[C@@H](N)CSSC[C@@H](C(N)=O)NC(=O)[C@H](Cc2ccccc2)NC(=O)[C@H](C)N(C)C1=O [S-(N-Me-Ala)] (HELM PEPTIDE1{C.A.D.G.P.T.L.R.E.W.I.[meA].F.C.[am]}$PEPTIDE1,PEPTIDE1,1:R3-14:R3$$$V2.0; N-terminus and C-terminus assumed)	≤ 200000	< 200000	–
CC[C@H](C)[C@@H]1NC(=O)[C@H](Cc2c[nH]c3ccccc23)NC(=O)[C@H](CCC(=O)O)NC(=O)[C@H](CCCNC(=N)N)NC(=O)[C@H](CC(C)C)NC(=O)[C@H]([C@@H](C)O)NC(=O)[C@@H]2CCCN2C(=O)CNC(=O)[C@H](CC(=O)O)NC(=O)[C@H](C)NC(=O)[C@@H](N)CSSC[C@@H](C(N)=O)NC(=O)[C@H](Cc2cccnc2)NC(=O)[C@H](CO)NC1=O [F-(Pyridylala)] (HELM PEPTIDE1{C.A.D.G.P.T.L.R.E.W.I.S.[O=C([C@H](Cc1cccnc1)N[*:1])[*:2]].C.[am]}$PEPTIDE1,PEPTIDE1,1:R3-14:R3$$$V2.0; N-terminus and C-terminus assumed)	≤ 500	< 500	–
CC[C@H](C)[C@@H]1NC(=O)[C@@H](N)CSSC[C@@H](C(N)=O)NC(=O)[C@H](C)NC(=O)[C@H](CCCNC(=N)N)NC(=O)[C@H](C)NC(=O)[C@H](C)NC(=O)[C@H](CC(C)C)NC(=O)[C@H](Cc2c[nH]c3ccccc23)NC(=O)[C@H](CCC(N)=O)NC(=O)[C@H](CCCNC(=N)N)NC(=O)[C@H](CC(C)C)NC(=O)[C@H]([C@@H](C)O)NC(=O)[C@@H]2CCCN2C(=O)CNC(=O)[C@H](CCC(=O)O)NC1=O (HELM PEPTIDE1{C.I.E.G.P.T.L.R.Q.W.L.A.A.R.A.C.[am]}$PEPTIDE1,PEPTIDE1,1:R3-16:R3$$$V2.0)	–	–	IC50 (TPO-R; Table 9, read-out: IC50): ≤ 500 nM
CC[C@H](C)[C@@H]1NC(=O)[C@H](Cc2c[nH]c3ccccc23)NC(=O)[C@H](CCC(=O)O)NC(=O)[C@H](CCCNC(=N)N)NC(=O)[C@H](CC(C)C)NC(=O)[C@H]([C@@H](C)O)NC(=O)[C@@H]2CCCN2C(=O)CNC(=O)[C@H](CC(=O)O)NC(=O)[C@H](C)NC(=O)[C@@H](NC(=O)CNC(=O)CN)CSSC[C@@H](C(=O)NCC(=O)NCC(=O)O)NC(=O)[C@H](Cc2ccccc2)NC(=O)[C@H](CO)NC1=O [G G C A D G P T L R E W I S F C G G] (HELM PEPTIDE1{G.G.C.A.D.G.P.T.L.R.E.W.I.S.F.C.G.G}$PEPTIDE1,PEPTIDE1,3:R3-16:R3$$$V2.0; N-terminus and C-terminus assumed; bridges inferred)	–	–	IC50 (TPO-R; Table 3, read-out: Affinity (IC50)): ≤ 500 nM
CC[C@H](C)[C@H](NC(C)=O)C(=O)N[C@@H](CCC(=O)O)C(=O)NCC(=O)N1CCC[C@H]1C(=O)N[C@H](C(=O)N[C@@H](CC(C)C)C(=O)N[C@@H](CCCNC(=N)N)C(=O)N[C@@H](CCC(N)=O)C(=O)N[C@@H](Cc1c[nH]c2ccccc12)C(=O)N[C@@H](CC(C)C)C(=O)N[C@@H](C)C(=O)N[C@@H](C)C(=O)N[C@@H](CCCNC(=N)N)C(=O)N[C@@H](C)C(=O)NCCCC[C@H](NC(=O)CCNC(=O)[C@H](C)NC(=O)[C@H](CCCNC(=N)N)NC(=O)[C@H](C)NC(=O)[C@H](C)NC(=O)[C@H](CC(C)C)NC(=O)[C@H](Cc1c[nH]c2ccccc12)NC(=O)[C@H](CCC(N)=O)NC(=O)[C@H](CCCNC(=N)N)NC(=O)[C@H](CC(C)C)NC(=O)[C@@H](NC(=O)[C@@H]1CCCN1C(=O)CNC(=O)[C@H](CCC(=O)O)NC(=O)[C@@H](NC(C)=O)[C@@H](C)CC)[C@@H](C)O)C(N)=O)[C@@H](C)O	–	–	EC50 ([1]; Table 10, truncations of the dimer, read-out: EC50 (nM) Cell Prolif.): < 500 nM
CC[C@H](C)[C@@H]1NC(=O)[C@H](Cc2c[nH]c3ccccc23)NC(=O)[C@H](CCC(=O)O)NC(=O)[C@H](CCCNC(=N)N)NC(=O)[C@H](CC(C)C)NC(=O)[C@H]([C@@H](C)O)NC(=O)[C@@H]2CCCN2C(=O)CNC(=O)[C@H](CC(=O)O)NC(=O)[C@H](C)NC(=O)CSC[C@@H](C(N)=O)NC(=O)CCCCNC1=O [S,F-Ava(thioether)] (HELM PEPTIDE1{[O=C(C[*:3])[*:2]].A.D.G.P.T.L.R.E.W.I.[O=C(CCCCN[*:1])[*:2]].C.[am]}$PEPTIDE1,PEPTIDE1,1:R3-13:R3$$$V2.0; N-terminus and C-terminus assumed)	≤ 500	< 200000	–
CC(C)C[C@@H]1NC(=O)[C@H](Cc2c[nH]c3ccccc23)NC(=O)[C@H](CCC(=O)O)NC(=O)[C@H](CCCNC(=N)N)NC(=O)[C@H](CC(C)C)NC(=O)[C@H]([C@@H](C)O)NC(=O)[C@@H](NC(=O)CNC(=O)CN)CSSC[C@@H](C(=O)NCC(=O)NCC(=O)O)NC(=O)[C@H](Cc2ccccc2)NC(=O)CNC(=O)CNC(=O)[C@H](Cc2c[nH]cn2)NC1=O [G G C T L R E W L H G G F C G G] (HELM PEPTIDE1{G.G.C.T.L.R.E.W.L.H.G.G.F.C.G.G}$PEPTIDE1,PEPTIDE1,3:R3-14:R3$$$V2.0; N-terminus and C-terminus assumed; bridges inferred)	–	–	IC50 (TPO-R; read-out: IC50 value): ≤ 500 nM
CC(C)C[C@H](NC(=O)[C@@H](NC(=O)[C@@H]1CCCN1C(=O)CNC(=O)[C@@H](NC(=O)[C@@H](N)Cc1c[nH]cn1)C(C)C)[C@@H](C)O)C(=O)N[C@@H](CCCNC(=N)N)C(=O)N[C@@H](CO)C(=O)NCC(=O)N[C@@H](CSSC[C@H](NC(=O)CNC(=O)[C@H](CO)NC(=O)[C@H](CCCNC(=N)N)NC(=O)[C@H](CC(C)C)NC(=O)[C@@H](NC(=O)[C@@H]1CCCN1C(=O)CNC(=O)[C@@H](NC(=O)[C@@H](N)Cc1c[nH]cn1)C(C)C)[C@@H](C)O)C(N)=O)C(N)=O (HELM PEPTIDE1{H.V.G.P.T.L.R.S.G.C.[am]}|PEPTIDE2{H.V.G.P.T.L.R.S.G.C.[am]}$PEPTIDE1,PEPTIDE2,10:R3-10:R3$$$V2.0)	–	–	IC50 (TPO-R; Table 7, dimer compounds, read-out: IC50): ≤ 200000 nM; EC50 ([1]; Table 7, dimer compounds, read-out: EC50 (nM) Prolif.): < 200000 nM
CC[C@@H]1NC(=O)[C@H]([C@@H](C)CC)NC(=O)[C@H](Cc2c[nH]c3ccccc23)NC(=O)[C@H](CCC(=O)O)NC(=O)[C@H](CCCNC(=N)N)NC(=O)[C@H](CC(C)C)NC(=O)[C@H]([C@@H](C)O)NC(=O)[C@@H]2CCCN2C(=O)CNC(=O)[C@H](CC(=O)O)NC(=O)[C@H](C)NC(=O)[C@@H](N)CSSC[C@@H](C(N)=O)NC(=O)[C@H](Cc2ccccc2)NC1=O [S-Abu] (HELM PEPTIDE1{C.A.D.G.P.T.L.R.E.W.I.[Abu].F.C.[am]}$PEPTIDE1,PEPTIDE1,1:R3-14:R3$$$V2.0; N-terminus and C-terminus assumed)	≤ 500	< 500	EC50 ([1]; Table 6, read-out: EC50 (nM) Cell Prolif.): < 500 nM

— patent US8227422B2, “Peptides and compounds that bind to a receptor” (Glaxosmithkline LLC, priority 1996, dated 2012)
